According to US20240409585A1, “MACROCYCLIC IMMUNOMODULATORS” (priority 2021, published 2024):
Numbered stars: 1 amine (or outer) side, 2 acyl side, 3 side chain; on linkers, the order of the positions; unused ones are H or OH. Bridge positions count the residues as written; N and C are the ends. Square brackets hold non-standard residues; d marks the D form. Peptide text beside a SMILES is read from it. * marks the point of attachment. Bip(4'-COOH) = N[C@@H](Cc1ccc(-c2ccc(C(=O)O)cc2)cc1)C(=O)O; Bip(4'-NHAc) = CC(=O)Nc1ccc(-c2ccc(C[C@H](N)C(=O)O)cc2)cc1; Trp(1-CH2COOH) = N[C@@H](Cc1cn(CC(=O)O)c2ccccc12)C(=O)O; Phe(3-CF3) = N[C@@H](Cc1cccc(C(F)(F)F)c1)C(=O)O; Ala(morpholin-4-yl) = N[C@@H](CN1CCOCC1)C(=O)O; Phe(4-CONH2) = NC(=O)c1ccc(C[C@H](N)C(=O)O)cc1; Phe(4-COOH) = N[C@@H](Cc1ccc(C(=O)O)cc1)C(=O)O; Bip = N[C@@H](Cc1ccc(-c2ccccc2)cc1)C(=O)O; Phe(3-Me) = Cc1cccc(C[C@H](N)C(=O)O)c1; Abu(3S-NH2) = C[C@H](N)[C@H](N)C(=O)O; Val(3-OH) = CC(C)(O)[C@H](N)C(=O)O; hPhe = N[C@@H](CCc1ccccc1)C(=O)O; Aad = N[C@@H](CCCC(=O)O)C(=O)O; Cha = N[C@@H](CC1CCCCC1)C(=O)O; Suc = O=C(CCC(=O)[*:2])[*:1]; Carboxymethyl = O=C(O)C*; NMeA = CN[C@@H](C)C(=O)O; Orn = NCCC[C@H](N)C(=O)O; Dab = NCC[C@H](N)C(=O)O; Dap = NC[C@H](N)C(=O)O; X42 = CS(=O)(=O)O*; X43 = c1coc(N*)n1

Biological target: T1, Alexa fluor-647 labeled human PD-L1-Ig binding to Jurkat cell line over-expressing human PD-1 (Homo sapiens, UniProt Q15116)
T1 construct: expressed in transfected cells; host or cells: Jurkat
Test: Jurkat-PD-1 Cell Binding High-Content Screening Assay (CBA): Method 3 (Alexa fluor-647 labeled PD-L1-Ig)
Settings: Jurkat-PD-1 cells, Alexa fluor-647 labeled PD-L1-Ig 177 nM; head μM; read-out: CBA Method 3 μM
Summary of the method: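 Jurkat cells over-expressing human PD-1 in RPMI/10% FCS were preincubated 2 h at 37 °C with compound, then exposed 1 h to Alexa fluor-647 labeled human PD-L1-Ig (177 nM final). Cells fixed in 4% paraformaldehyde with Hoechst 33342 and binding quantified by high-content imaging.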

T1 sequence (Q15116 25-288): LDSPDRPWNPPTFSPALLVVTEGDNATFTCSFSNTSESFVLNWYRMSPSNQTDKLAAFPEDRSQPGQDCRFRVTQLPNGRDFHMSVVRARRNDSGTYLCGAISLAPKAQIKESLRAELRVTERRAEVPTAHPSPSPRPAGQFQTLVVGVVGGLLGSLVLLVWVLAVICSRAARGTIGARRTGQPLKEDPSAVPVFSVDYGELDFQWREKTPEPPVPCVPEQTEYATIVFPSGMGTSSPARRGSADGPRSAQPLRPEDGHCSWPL

| SMILES | IC50 |
| --- | --- |
| CC(C)C[C@H]1NC(=O)[C@H](C)N(C)C(=O)[C@H](Cc2ccc(C(=O)O)cc2)NC(=O)[C@H](Cc2ccc(-c3ccccc3)cc2)NC(=O)[C@H](Cc2ccc(-c3ccc(C(=O)O)cc3)cc2)NC(=O)[C@H](Cc2cccc(C(F)(F)F)c2)NC(=O)[C@H](CC(=O)O)NC(=O)[C@H](Cc2ccc(C(=O)O)cc2)NC(=O)[C@H](Cc2ccc(OCC(=O)O)cc2)NC(=O)CSC[C@@H](C(=O)N[C@@H](CCN)C(N)=O)NC(=O)[C@H](CCC(=O)O)NC(=O)[C@H](C(C)C)NC(=O)[C@H](CC2CCCCC2)NC(=O)[C@H](CCN)NC1=O [Example 5164] ({CH2CO}-Y(Carboxymethyl)[Phe(4-COOH)]D[Phe(3-CF3)][Bip(4'-COOH)][Bip][Phe(4-COOH)][NMeA][dL][Dab][Cha]VEC[Dab]-NH2; thioether N-14) | 0.15 µM |
| CC(C)C[C@H]1NC(=O)[C@H](C)N(C)C(=O)[C@H](CCCN)NC(=O)[C@H](Cc2ccc(-c3ccccc3)cc2)NC(=O)[C@H](Cc2ccc(-c3ccc(C(=O)O)cc3)cc2)NC(=O)[C@H](Cc2cccc(C(F)(F)F)c2)NC(=O)[C@H](CC(=O)Nc2ncco2)NC(=O)[C@H](Cc2ccc(-c3ccc(C(=O)O)cc3)cc2)NC(=O)[C@H](Cc2ccc(OCC(=O)O)cc2)NC(=O)CSC[C@@H](C(=O)N[C@@H](CCN)C(N)=O)NC(=O)[C@H](CC(N)=O)NC(=O)[C@H](C(C)C)NC(=O)[C@H](CC2CCCCC2)NC(=O)[C@H](CCN)NC1=O [Example 5116] ({CH2CO}-Y(Carboxymethyl)[Bip(4'-COOH)]D(X43)[Phe(3-CF3)][Bip(4'-COOH)][Bip][Orn][NMeA][dL][Dab][Cha]VNC[Dab]-NH2; thioether N-14) | 0.33 µM |
| CC(=O)Nc1ccc(-c2ccc(C[C@@H]3NC(=O)[C@H](Cc4cccc(C(F)(F)F)c4)NC(=O)[C@H](CC(=O)OS(C)(=O)=O)NC(=O)[C@H](Cc4ccc(C(=O)O)cc4)NC(=O)[C@H]([C@H](C)N)NC(=O)CSC[C@@H](C(=O)N[C@@H](CCN)C(N)=O)NC(=O)[C@H](CC(N)=O)NC(=O)[C@H](C(C)C)NC(=O)[C@H](CC4CCCCC4)NC(=O)[C@H](CCN)NC(=O)[C@@H](CC(C)C)NC(=O)[C@H](C)N(C)C(=O)[C@H](Cc4ccc(C(N)=O)cc4)NC(=O)[C@H](Cc4ccc(-c5ccccc5)cc4)NC3=O)cc2)cc1 [Example 5112] ({CH2CO}-[Abu(3S-NH2)][Phe(4-COOH)]D(X42)[Phe(3-CF3)][Bip(4'-NHAc)][Bip][Phe(4-CONH2)][NMeA][dL][Dab][Cha]VNC[Dab]-NH2; thioether N-14) | 0.1 µM |
| CC(=O)Nc1ccc(-c2ccc(C[C@@H]3NC(=O)[C@H](Cc4cccc(C)c4)NC(=O)[C@H](CC(=O)O)NC(=O)[C@H](Cc4ccc(C(=O)O)cc4)NC(=O)[C@H](CN4CCOCC4)NC(=O)CSC[C@@H](C(=O)N[C@@H](CCN)C(N)=O)NC(=O)[C@H](CCCC(=O)O)NC(=O)[C@H](C(C)C)NC(=O)[C@H](CC4CCCCC4)NC(=O)[C@H](CCN)NC(=O)[C@@H](CC(C)C)NC(=O)[C@H](C)N(C)C(=O)[C@H](Cc4ccc(C(=O)O)cc4)NC(=O)[C@H](Cc4ccc(-c5ccccc5)cc4)NC3=O)cc2)cc1 [Example 5255] ({CH2CO}-[Ala(morpholin-4-yl)][Phe(4-COOH)]D[Phe(3-Me)][Bip(4'-NHAc)][Bip][Phe(4-COOH)][NMeA][dL][Dab][Cha]V[Aad]C[Dab]-NH2; thioether N-14) | 0.0022 µM |
| CC(C)C[C@H]1NC(=O)[C@H](C)N(C)C(=O)[C@H](Cc2ccc(C(=O)O)cc2)NC(=O)[C@H](Cc2ccc(-c3ccccc3)cc2)NC(=O)[C@H](CCc2ccccc2)NC(=O)[C@H](Cc2cccc(C(F)(F)F)c2)NC(=O)[C@H](CC(=O)N[C@@H](CC(=O)O)C(=O)O)NC(=O)[C@H](Cc2ccc(C(=O)O)cc2)NC(=O)[C@H](CN2CCOCC2)NC(=O)CSC[C@@H](C(=O)N[C@@H](CCN)C(N)=O)NC(=O)[C@H](CCC(N)=O)NC(=O)[C@H](C(C)C)NC(=O)[C@H](CC2CCCCC2)NC(=O)[C@H](CCN)NC1=O [Example 5281] ({CH2CO}-[Ala(morpholin-4-yl)][Phe(4-COOH)]D(Asp)[Phe(3-CF3)][hPhe][Bip][Phe(4-COOH)][NMeA][dL][Dab][Cha]VQC[Dab]-NH2; thioether N-14) | 0.16 µM |
| Cc1cccc(C[C@@H]2NC(=O)[C@H](CC(=O)O)NC(=O)[C@H](Cc3ccc(C(=O)O)cc3)NC(=O)[C@H](C)NC(=O)CSC[C@@H](C(=O)N[C@@H](CCN)C(N)=O)NC(=O)[C@H](CCC(=O)O)NC(=O)[C@H](C(C)C)NC(=O)[C@H](CC3CCCCC3)NC(=O)[C@H](CCN)NC(=O)[C@@H](CC(C)C)NC(=O)[C@H](C)N(C)C(=O)[C@H](Cc3ccc(C(=O)O)cc3)NC(=O)[C@H](Cc3ccc(-c4ccccc4)cc3)NC(=O)[C@H](Cc3ccc(C(=O)O)cc3)NC2=O)c1 [Example 5136] ({CH2CO}-A[Phe(4-COOH)]D[Phe(3-Me)][Phe(4-COOH)][Bip][Phe(4-COOH)][NMeA][dL][Dab][Cha]VEC[Dab]-NH2; thioether N-14) | 0.02 µM |
| Cc1cccc(C[C@@H]2NC(=O)[C@H](CC(=O)O)NC(=O)[C@H](Cc3ccc(-c4ccc(C(=O)O)cc4)cc3)NC(=O)[C@H](CN3CCOCC3)NC(=O)CSC[C@@H](C(=O)N[C@@H](CCN)C(N)=O)NC(=O)[C@H](Cc3cnc[nH]3)NC(=O)[C@H](C(C)(C)O)NC(=O)[C@H](CC3CCCCC3)NC(=O)[C@H](CCN)NC(=O)[C@@H](CC(C)C)NC(=O)[C@H](C)N(C)C(=O)[C@H](Cc3ccc(C(=O)O)cc3)NC(=O)[C@H](Cc3ccc(-c4ccccc4)cc3)NC(=O)[C@H](Cc3ccc(-c4ccc(C(=O)O)cc4)cc3)NC2=O)c1 [Example 5133] ({CH2CO}-[Ala(morpholin-4-yl)][Bip(4'-COOH)]D[Phe(3-Me)][Bip(4'-COOH)][Bip][Phe(4-COOH)][NMeA][dL][Dab][Cha][Val(3-OH)]HC[Dab]-NH2; thioether N-14) | 0.2 µM |

Same assay, conditions: Jurkat-PD-1 cells, Alexa fluor-647 labeled PD-L1-Ig 177 nM; nM; read-out: CBA Method 3

| SMILES | IC50 |
| --- | --- |
| CC(C)C[C@H]1NC(=O)[C@H](C)N(C)C(=O)[C@H](Cc2ccc(C(=O)O)cc2)NC(=O)[C@H](Cc2ccc(-c3ccccc3)cc2)NC(=O)[C@H](Cc2ccc(C(N)=O)cc2)NC(=O)[C@H](Cc2cccc(C(F)(F)F)c2)NC(=O)[C@H](CC(=O)O)NC(=O)[C@H](Cc2ccc(C(=O)O)cc2)NC(=O)[C@H]([C@H](C)N)NC(=O)CSC[C@@H](C(=O)N[C@@H](CCN)C(N)=O)NC(=O)[C@H](CC(N)=O)NC(=O)[C@H](C(C)C)NC(=O)[C@H](CC2CCCCC2)NC(=O)[C@H](CCN)NC1=O [Example 5101] ({CH2CO}-[Abu(3S-NH2)][Phe(4-COOH)]D[Phe(3-CF3)][Phe(4-CONH2)][Bip][Phe(4-COOH)][NMeA][dL][Dab][Cha]VNC[Dab]-NH2; thioether N-14) | 0.0037 µM |
| CC(=O)Nc1ccc(-c2ccc(C[C@@H]3NC(=O)[C@H](Cc4cccc(C)c4)NC(=O)[C@H](CC(=O)O)NC(=O)[C@H](Cc4ccc(-c5ccc(C(=O)O)cc5)cc4)NC(=O)[C@H](CN4CCOCC4)NC(=O)CSC[C@@H](C(=O)N[C@@H](CCN)C(N)=O)NC(=O)[C@H](CCC(=O)O)NC(=O)[C@H](C(C)C)NC(=O)[C@H](CC4CCCCC4)NC(=O)[C@H](Cc4cnc[nH]4)NC(=O)[C@@H](CC(C)C)NC(=O)[C@H](C)N(C)C(=O)[C@H](Cc4ccc(C(=O)O)cc4)NC(=O)[C@H](Cc4ccc(-c5ccccc5)cc4)NC3=O)cc2)cc1 [Example 5253] ({CH2CO}-[Ala(morpholin-4-yl)][Bip(4'-COOH)]D[Phe(3-Me)][Bip(4'-NHAc)][Bip][Phe(4-COOH)][NMeA][dL]H[Cha]VEC[Dab]-NH2; thioether N-14) | 0.0028 µM |
| Cc1cccc(C[C@@H]2NC(=O)[C@H](CC(=O)O)NC(=O)[C@H](Cc3ccc(OCC(=O)O)cc3)NC(=O)[C@H](Cc3cn(CC(=O)O)c4ccccc34)NC(=O)CSC[C@@H](C(=O)N[C@@H](CCN)C(N)=O)NC(=O)[C@H](CCCN)NC(=O)[C@H](C(C)C)NC(=O)[C@H](CC3CCCCC3)NC(=O)[C@H](CCN)NC(=O)[C@@H](CC(C)C)NC(=O)[C@H](C)N(C)C(=O)[C@H](CCC(N)=O)NC(=O)[C@H](Cc3ccc(-c4ccccc4)cc3)NC(=O)[C@H](Cc3ccc(C(=O)O)cc3)NC2=O)c1 [Example 5171] ({CH2CO}-[Trp(1-CH2COOH)]Y(Carboxymethyl)D[Phe(3-Me)][Phe(4-COOH)][Bip]Q[NMeA][dL][Dab][Cha]V[Orn]C[Dab]-NH2; thioether N-14) | 0.0044 µM |
| CC(C)C[C@H]1NC(=O)[C@H](C)N(C)C(=O)[C@H](Cc2ccc(C(=O)O)cc2)NC(=O)[C@H](Cc2ccc(-c3ccccc3)cc2)NC(=O)[C@H](Cc2ccc(C(=O)O)cc2)NC(=O)[C@H](Cc2cccc(C(F)(F)F)c2)NC(=O)[C@H](CC(=O)O)NC(=O)[C@H](Cc2ccc(C(=O)O)cc2)NC(=O)[C@H](CN2CCOCC2)NC(=O)CSC[C@@H](C(=O)N[C@@H](CCN)C(N)=O)NC(=O)[C@H](CNC(=O)CCC(=O)O)NC(=O)[C@H](C(C)C)NC(=O)[C@H](CC2CCCCC2)NC(=O)[C@H](CCN)NC1=O [Example 5142] ({CH2CO}-[Ala(morpholin-4-yl)][Phe(4-COOH)]D[Phe(3-CF3)][Phe(4-COOH)][Bip][Phe(4-COOH)][NMeA][dL][Dab][Cha]V[Dap](Suc)C[Dab]-NH2; thioether N-14) | 0.0033 µM |
| Cc1cccc(C[C@@H]2NC(=O)[C@H](CC(=O)O)NC(=O)[C@H](Cc3ccc(OCC(=O)O)cc3)NC(=O)[C@H](CCCN)NC(=O)CSC[C@@H](C(=O)N[C@@H](CCN)C(N)=O)NC(=O)[C@H](CCCN)NC(=O)[C@H](C(C)C)NC(=O)[C@H](CC3CCCCC3)NC(=O)[C@H](CCN)NC(=O)[C@@H](CC(C)C)NC(=O)[C@H](C)N(C)C(=O)[C@H](CCC(N)=O)NC(=O)[C@H](Cc3ccc(-c4ccccc4)cc3)NC(=O)[C@H](Cc3ccc(C(=O)O)cc3)NC2=O)c1 [Example 5180] ({CH2CO}-[Orn]Y(Carboxymethyl)D[Phe(3-Me)][Phe(4-COOH)][Bip]Q[NMeA][dL][Dab][Cha]V[Orn]C[Dab]-NH2; thioether N-14) | 0.0068 µM |
